We go through 7 compounds from PubChem BioAssay (NCI).

“And” between values parts separate entries of the source, which are not always exact repeats. Equal entries are not always repeated.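 Compound exposure: 48 hours, 5 concentrations, 96-well plates. The concentration for 50% growth inhibition is given as GI50. The concentration for full growth arrest is given as TGI.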 Bounds are passed on as bounds.

Holding throughout (assay): growth of human tumour cells (NCI), 48 h
Test [1] has as its system 786-0 renal.
For test [2], the system named is ACHN renal.
Test [3] concerns CCRF-CEM leukemia.
Test [4] deals with HL-60(TB) leukemia.
The test system of test [5] is HOP-62 NSCLC.
In test [6] the test system is MDA-MB-231 breast.
The subject of test [7] is NCI-H23 lung.
The subject of test [8] is PC-3 prostate.
The subject of test [9] is RXF 393 renal.
Test [10] relates to SNB-75 CNS.

With `CC(C)[C@@H]1NC(=O)[C@]2(C)CSC(=N2)c2csc(n2)CNC(=O)C[C@@H](/C=C/CCS)OC1=O`, the GI50 in test [1] was 454 nM; in [2], 1750 nM; in test [3] it was 276 nM; in [4] it was 361 nM; in test [5], 45.3 nM; in test [6] it was 317 nM. Further, the GI50 in test [7] is 219 nM; in test [8], 57.7 nM; in [9] it was 52.1 nM; in test [10], 68.6 nM. Further, the TGI was over 100000 nM in test [1]; 9120 nM in test [2]; over 100000 nM in test [3]; over 100000 nM in [4]; over 29100 nM in [5]; over 47400 nM in test [6]. The TGI is over 30600 nM in [7], over 100000 nM in test [8], 330 nM in test [9] and over 100000 nM in test [10].

As for `O=C1OCC2=C1C(c1ccccc1)c1cc3c(cc1N2CCO)CCC3` (centres undefined), the GI50 in test [1] is 98.8 nM; in test [2], 148 nM; in test [3], 117 nM; in [4], 87.1 nM; in test [5], 131 nM; in test [6] it was 689 nM. For the same compound, the GI50 was 106 nM in test [7], 98.6 nM in [8], 59.7 nM in [9] and 78.6 nM in test [10]. Also, the TGI in test [1] is over 14500 nM; in test [2], over 25000 nM; in test [3] it was over 25000 nM; in test [4], 1940 nM; in test [5], over 25000 nM; in test [6] it was over 25000 nM. In addition, the TGI in [7] was over 9910 nM; in test [8], over 25000 nM; in test [9], 138 nM; in test [10], over 25000 nM.

Take `C[C@@]12CCC[C@@](C)(C(=O)O)C1CC[C@]13C=C(CO)[C@](O)(CCC12)C3` (some centres undefined): the GI50 in test [1] is over 100000 nM; in [2], over 100000 nM; in test [3], 65900 nM; in test [4] it was over 100000 nM; in test [5] it was over 100000 nM; in test [6], over 100000 nM. Moreover, the GI50 in test [7], in test [8], in [9] and in test [10] was over 100000 nM in each case. For the same compound, the TGI in test [1], in test [2], in [3], in test [4], in test [5] and in test [6] was over 100000 nM each time. The TGI in test [7], in [8], in test [9] and in test [10] was over 100000 nM in each case.

As for `CCN(CC)CCC(CNc1c2ccc([N+](=O)[O-])cc2nc2cc(OC)c(OC)cc12)c1ccccc1` (centres undefined), the GI50 in test [1] is 1070 nM and 671 nM; in test [2], 553 nM and 518 nM; in test [3], 1190 nM and 1700 nM; in test [4], 1820 nM and 2400 nM; in test [5] it was 284 nM and 226 nM; in test [6], 174 nM and 178 nM. The GI50 in test [7] is 292 nM and 287 nM; in test [8], 305 nM and 209 nM; in [9], 541 nM and 228 nM; in test [10], 330 nM and 673 nM. Besides, the TGI in test [1] is 2540 nM and 1930 nM; in test [2], 2070 nM and 2060 nM; in test [3], 7290 nM and 10100 nM; in test [4], 3880 nM and 5120 nM; in test [5], 1230 nM and 1100 nM; in test [6], 627 nM and 730 nM. The TGI in test [7] is 1230 nM and 1290 nM; in [8], 1010 nM and 980 nM; in test [9], 1770 nM and 662 nM; in [10] it was 1620 nM and 2150 nM.

Take `O=C1OCC2=C1C(c1cccc([N+](=O)[O-])c1)c1cc3c(cc1N2CCO)CCC3` (centres undefined): the GI50 in test [1] is 82.2 nM; in test [2], 398 nM; in test [3] it was 216 nM; in test [4], 137 nM; in test [5], 199 nM; in test [6], 271 nM. Further, the GI50 was 335 nM in test [7], 145 nM in test [8], 123 nM in test [9] and 51.3 nM in test [10]. The TGI was 16800 nM in test [1]; over 50000 nM in [2]; over 50000 nM in [3]; 373 nM in test [4]; over 50000 nM in test [5]; over 19300 nM in test [6]. The TGI in [7] is over 50000 nM; in test [8] it was over 50000 nM; in [9], over 50000 nM; in test [10], 363 nM.

As for `CCCCCCCCCCCCCCCCCC(=O)[O][Sn]([CH2]CCC)([CH2]CCC)[CH2]CCC`, the GI50 was 152 nM in test [1]; 163 nM in test [2]; 170 nM in test [3]; 179 nM in test [4]; 158 nM in test [5]; 125 nM in test [6]. The GI50 was 127 nM in [7], 180 nM in test [8], 100 nM in test [9] and 124 nM in test [10]. Further, the TGI in [1] is 305 nM; in [2], 334 nM; in test [4], 489 nM; in test [5], 332 nM; in test [6], 361 nM; in test [7], 287 nM. Also, the TGI in test [8] is 463 nM; in test [9], 253 nM; in test [10], 269 nM.

In the case of `CN(C)c1cc2c(cc1Sc1nc3c(N)nccc3n1CCNCC(C)(C)C)OCO2`, the GI50 was 3890 nM in test [1]; 573 nM in [2]; 317 nM in [3]; 274 nM in test [4]; 2390 nM in test [5]; 585 nM in test [6]. For the same compound, the GI50 in test [7] is 448 nM; in test [8], 615 nM; in [9] it was 665 nM; in test [10], 1530 nM. Further, the TGI in test [1] was 21400 nM; in test [2], over 59600 nM; in [3], 18200 nM; in [4], 850 nM; in test [5], 22100 nM; in [6], 17100 nM. The TGI in test [7] is 22800 nM; in test [8] it was 28800 nM; in test [9], 15300 nM; in test [10], 19100 nM.
